From the Deep4Chem optical property database

Assay: solvent given as SMILES

For `Cc1cc(C)c([B-]2(c3c(C)cc(C)cc3C)[O+]=P(c3ccccc3)(c3ccccc3)c3cc(-c4ccc(N(C)C)cc4)sc3-c3sc(-c4ccc(N(C)C)cc4)cc32)c(C)c1`, the absorption maximum (in C1CCOC1) was 445 nm.

Work on `CC[n+]1c(-c2ccccc2)c2cc(NC(N)=O)ccc2c2ccc(NC(N)=O)cc21` yielded an absorption maximum (in O) of 434 nm.

`CCCCCCCCCCCCOc1cc2cc(N(C)C)ccc2cc1C#N` showed an absorption maximum (in C1CCOC1) of 361 nm, an absorption maximum (in CC#N) of 368 nm and an absorption maximum (in CCCCCC) of 336 nm. For the same compound, the absorption maximum (in CCO) was 368 nm, the absorption maximum (in CCOC(C)=O) was 361 nm and the absorption maximum (in CS(C)=O) was 369 nm. It also gave an absorption maximum (in ClCCl) of 368 nm and an absorption maximum (in O) of 368 nm.

With `COc1ccc(O)c(-c2[nH]c(=O)n3c2-c2ccccc2C3=O)c1` the absorption maximum (in CC#N) was 395 nm, the absorption maximum (in CO) was 401 nm and the absorption maximum (in ClCCl) was 399 nm.

`CC(C)(C)c1ccc2c(c1)c1ncncc1c1c3ccccc3sc21` showed an absorption maximum (in ClCCl) of 377 nm.

In the case of `CC[N+](CC)=c1ccc2c(-c3ccccc3C(=O)O)c3c(=O)oc4cc5c(cc4c3oc-2c1)CCCN5C`, the absorption maximum (in CCO) is reported as 598 nm, the absorption maximum (in ClC(Cl)Cl) is reported as 610 nm and the absorption maximum (in O) is reported as 601 nm.

`CC(=O)OC[C@@H]1O[C@H](n2cnc3c2N=CN2Cc4c[n+](C)c(C)nc4N=C32)[C@@H](O)[C@H]1O` showed an absorption maximum (in CC#N) of 392 nm, an absorption maximum (in CCO) of 389 nm and an absorption maximum (in O) of 383 nm.

With `CC1=CC(C)=[N+]2C1=C(c1ccc(O)cc1)c1c(C)cc(/C=C/C=C3/N(C)c4ccccc4C3(C)C)n1[B-]2(F)F` the absorption maximum (in O) was 650 nm.

For `N#Cc1cc(-n2c3ccccc3c3ccccc32)c(-n2c3ccccc3c3ccccc32)cc1C#N`, the absorption maximum (in C1CCOC1) was 368 nm, the absorption maximum (in CC#N) was 367 nm and the absorption maximum (in Cc1ccccc1) was 375 nm. It also gave an absorption maximum (in ClCCl) of 364 nm.

In the case of `COc1ccc(-c2cc3c(s2)=CC2=C(C(F)(F)F)c4cc5sc(-c6ccc(OC)cc6)cc5n4[B-](F)(F)[N+]=32)cc1`, the absorption maximum (in C1CCOC1) is reported as 730 nm and the absorption maximum (in ClC(Cl)Cl) is reported as 731 nm.

Compound `Clc1ccc(-c2nc3ccccc3n2-c2ccccc2)cc1` has an absorption maximum (in CC#N) of 295 nm.

Work on `Cc1ccc(-c2ccc(/C=C/c3ccc(F)cc3)cn2)nc1` yielded an absorption maximum (in CC#N) of 334 nm.

For `CC(C)(C)c1ccc2c(c1)c1cc(C(C)(C)C)ccc1n2-c1cccc(-n2c3ccc(C(C)(C)C)cc3c3cc(C(C)(C)C)ccc32)c1C#N`, the absorption maximum (in Cc1ccccc1) was 367 nm.

Work on `Nc1ccc2nc3c4ccccc4c(=[NH2+])cc-3oc2c1` yielded an absorption maximum (in CCO) of 600 nm.

`COC(=O)C1=C(C(=O)OC)C2(c3cc(Cl)ccc3-c3c(Cl)cc(Cl)cc32)C2(/C=C/c3ccccc3)c3cc(OC)c(OC)cc3CCN12` (stereo not drawn) gave an absorption maximum (in ClCCl) of 327 nm.

Work on `O=[N+]([O-])c1ccc[nH]1` yielded an absorption maximum (in CO) of 336 nm and an absorption maximum (in O) of 350 nm.

In the case of `N#Cc1nc(N(Cc2ccccc2I)Cc2ccccc2I)c(C#N)nc1N(Cc1ccccc1I)Cc1ccccc1I`, the absorption maximum (in ClC(Cl)Cl) is reported as 487 nm.

With `OC1(c2ccc(-c3cccs3)s2)CCC1` the absorption maximum (in C1CCOC1) was 311 nm, the absorption maximum (in CC#N) was 309 nm and the absorption maximum (in CCCCCC) was 308 nm. The absorption maximum (in CCO) was 310 nm, the absorption maximum (in OCCOCCO) was 314 nm and the absorption maximum (in c1ccncc1) was 316 nm.

For `CN1/C(=C/C=C(/C=C/C2=[N+](C)c3ccccc3C2(C)C)c2ccc(C(F)(F)F)cc2)C(C)(C)c2ccccc21`, the absorption maximum (in CCO) was 637 nm, the absorption maximum (in CO) was 634 nm and the absorption maximum (in CS(C)=O) was 643 nm. For the same compound, the absorption maximum (in O) was 632 nm.

For `c1ccc(-c2c3c(nc4ccccc24)-c2cc4c(cc2CC3)-c2nc3ccccc3c(-c3ccccc3)c2CC4)cc1`, the absorption maximum (in ClC(Cl)Cl) was 376 nm.

Compound `Ic1ccc(-c2c3ccc(=[N+]4CCCCC4)cc-3oc3cc(N4CCCCC4)ccc23)cc1` has an absorption maximum (in CCO) of 568 nm and an absorption maximum (in ClCCl) of 570 nm.

`Cc1cc(C)n2c1C=C1C(=O)N(C)C(c3ccc([N+](=O)[O-])cc3)=[N+]1[B-]2(F)F` showed an absorption maximum (in CCCCCC) of 498 nm.

For `Clc1nc(Nc2ccccc2)nc(Nc2ccc3cc4ccccc4cc3c2)n1`, the absorption maximum (in C1COCCO1) was 398 nm, the absorption maximum (in CC#N) was 397 nm and the absorption maximum (in CCCCOCCCC) was 398 nm. It also gave an absorption maximum (in CCOC(C)=O) of 396 nm.

`O=C(O)C1=C(C(=O)O)C2=C[C@H]3c4ccccc4[C@]2([Se]1)c1ccccc13` gave an absorption maximum (in ClCCl) of 421 nm.

`N#Cc1ccc(/C2=C3N=C(C(c4ccccc4)=C/3c3ccccc3)/C(c3ccc(C#N)cc3)=c3\[nH]/c(c(-c4ccccc4)c3-c3ccccc3)=C(/c3ccc(C#N)cc3)C3=N/C(=C(/c4ccc(C#N)cc4)c4[nH]c2c(-c2ccccc2)c4-c2ccccc2)C(c2ccccc2)=C3c2ccccc2)cc1` gave an absorption maximum (in ClCCl) of 704 nm.

Work on `COc1cc(OC)cc(C2=[O+][B-](F)(F)OC(c3ccccc3)=C2)c1` yielded an absorption maximum (in ClCCl) of 369 nm.

Compound `COc1ccc(C2=[N+]3C(=Nc4c(-c5cc(OC)c(OC)c(OC)c5)c(-c5ccc(C(C)(C)C)cc5)c(-c5ccc(OC)cc5)n4[B-]3(F)F)C(c3cc(OC)c(OC)c(OC)c3)=C2c2ccc(C(C)(C)C)cc2)cc1` has an absorption maximum (in Cc1ccccc1) of 694 nm.

With `CCCCCCCCCCOC(=O)c1ccc2c3ccc(C(=O)OCCCCCCCCCC)c4c(C(=O)OCCCCCCCCCC)cc5[nH]c6cc(C(=O)OCCCCCCCCCC)c1c2c6c5c43` the absorption maximum (in C1CCOC1) was 410 nm.

In the case of `Cc1cc2cc(C)c3c4ccccc4[nH]c3c2s1`, the absorption maximum (in ClCCl) is reported as 312 nm.

`COc1ccc(-c2ncccn2)cc1` gave an absorption maximum (in ClCCl) of 283 nm.

For `CCN(CC)c1ccc2c(c1)oc(=O)c1c(=O)oc3c(C)c4oc(=O)c5c(=O)oc6cc(N(CC)CC)ccc6c5c4cc3c12`, the absorption maximum (in CS(C)=O) was 463 nm and the absorption maximum (in ClCCl) was 458 nm.

`c1ccc(-c2nc(-c3ccccc3)nc(-c3ccc(-n4c5ccccc5c5ccc6c(c7ccccc7n6-c6ccccc6)c54)cc3)n2)cc1` showed an absorption maximum (in Cc1ccccc1) of 360 nm.

In the case of `COc1nc(Cl)nc(Nc2ccc3cc4ccccc4cc3c2)n1`, the absorption maximum (in C1COCCO1) is reported as 394 nm, the absorption maximum (in CC#N) is reported as 397 nm and the absorption maximum (in CCCCOCCCC) is reported as 396 nm. The absorption maximum (in CCOC(C)=O) was 398 nm.

In the case of `COc1ccc(-n2cccc2)cc1`, the absorption maximum (in CC#N) is reported as 252 nm and the absorption maximum (in CCCCCC) is reported as 252 nm.

Work on `CC1=c2ccccc2=[N+]2C1=Cc1c3ccccc3c(-c3[nH]c4ccccc4c3C)n1[B-]2(F)F` yielded an absorption maximum (in ClCCl) of 611 nm.

In the case of `C[Si](C)(C)c1ccc(C#N)c2ccccc12`, the absorption maximum (in C1CCCCC1) is reported as 315 nm.

For `CC(=O)Nc1ccc(S(=O)(=O)O)c(/N=N/c2c(O)c3ccccc3n(C)c2=O)c1`, the absorption maximum (in C1CCOC1) was 435 nm, the absorption maximum (in CC(C)=O) was 425 nm and the absorption maximum (in CCOC(C)=O) was 434 nm. The absorption maximum (in CO) was 423 nm, the absorption maximum (in CS(C)=O) was 428 nm and the absorption maximum (in Cc1ccccc1) was 437 nm. The absorption maximum (in ClCCl) was 435 nm and the absorption maximum (in O) was 417 nm.

In the case of `CC1(C)CC(=O)C2=C(C1)Oc1ccc3ccccc3c1C2c1ccccn1` (stereo not drawn), the absorption maximum (in C1CCOC1) is reported as 275 nm, the absorption maximum (in C1COCCO1) is reported as 274 nm and the absorption maximum (in CC#N) is reported as 275 nm. It also gave an absorption maximum (in CCCCCCC) of 274 nm, an absorption maximum (in CCO) of 274 nm and an absorption maximum (in CO) of 275 nm. It also gave an absorption maximum (in O) of 264 nm.

Compound `Oc1c(-c2cccs2)cccc1-c1nc2ccccc2s1` has an absorption maximum (in ClCCl) of 356 nm and an absorption maximum (in O) of 346 nm.

Compound `c1cc2c([nH]c3c4[nH]c5sccc5c4c4nsnc4c23)s1` has an absorption maximum (in C1CCOC1) of 420 nm, an absorption maximum (in CCOC(C)=O) of 414 nm and an absorption maximum (in CN(C)C=O) of 423 nm. For the same compound, the absorption maximum (in Cc1ccccc1) was 411 nm and the absorption maximum (in ClCCl) was 415 nm.
